The values below come from patent US12624018B1, “Inhibitors of RIPK2 and medical uses thereof” (Odyssey Therapeutics, Inc., priority 2022, dated 2026).

One experiment has as its system human NOD2 signaling. Nature of the experiment: Inhibition of human NOD2 signaling in HEK-Blue-hNOD2 cells (L18-MDP stimulated, SEAP reporter). The format is cell-based. The settings on record: Homo sapiens, HEK-Blue hNOD2, HEK-Blue-hNOD2 cells, NOD2 ligand stimulation, SEAP reporter; read-out: hNOD2 IC50. In a few lines: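 Read-out is SEAP absorbance at 620 nm after 3 h QUANTI-Blue development of supernatant from HEK293 cells carrying NOD2 and a SEAP reporter (12500/well). Cells got compound (10 points, 3-fold dilutions) and 0.5 ng/mL L18-MDP for 24 h at 37 °C; percent inhibition vs stimulated/unstimulated controls, 4-parameter IC50.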

The test system of experiment [1] is RIPK2 activity in vivo, as measured by plasma levels of cytokine MCP-1. Nature of the experiment: In vivo inhibition of monocyte chemoattractant protein-1 (MCP-1), acute mouse MDP challenge. The following applies: female C57BL/6 mice, plasma 2 h after MDP. Here is the method:
The compounds of the disclosure were tested for their ability to inhibit RTPK2 activity in vivo, as measured by plasma levels of cytokine MCP-1. C57BL/6 mice were dosed orally with the compounds of the disclosure one hour prior to intra-peritoneal administration of muramyldipeptide (MDP), a NOD2 agonist. Intraperitoneal (i.p.) injection of MDP in mice induces an increase in circulating levels of proinflammatory cytokines, such as MCP-1, in a RIPK2-dependent manner. This acute mouse MDP challenge represents a screening model to measure the ability of compounds to inhibit RIPK2 in vivo.
Materials: Female C57BL/6 mice (6-13 weeks of age) were purchased from the Jackson Laboratory. All mice were maintained under a 12 h light/dark cycle and had food and water ad libitum. Muramyldipeptide (MDP) was purchased from Invivogen (catalog No. tlrl-mdp; lot No. 6231-43-02). Mouse MCP-1 was measured using U-PLEX MSD kit (Meso Scale Discovery (MSD), catalog No. K15069M-2). Carboxymethyl cellulose was purchased from Sigma-Aldrich (catalog No. C5678-500 ml), Tween80 was purchased from Sigma-Aldrich (catalog No. P1754-500 ml), (Hydroxypropyl)-β-cyclodextrin (HP-β-CD) was purchased from Sigma-Aldrich (catalog No. C332607-500G), PBS was purchased from Thermo Fisher Scientific (catalog No. 14190250).
The vehicle was prepared by mixing carboxymethyl cellulose and Tween80 to achieve a final solution of 0.5% CMC or 20% HP-β-CD in water. The compounds of the disclosure were weighed out and mixed with the vehicle to yield final working suspensions. Working suspensions of the compounds were prepared once at the beginning of the study, and vortexed and sonicated prior to each dosing to ensure the material was in fine suspension.
Mice were acclimated to the facility for at least 5 days before the start of the study. On day 0, mice were weighed and assigned to groups in a balanced manner to achieve similar average weight across the groups at the start of the study. On day 0, hour −1 (1 hours before MDP injection), all mice were given a single p.o. dose with vehicle or a compound of the disclosure. At hour 0 (1 hour after dosing), mice were injected intraperitoneally (IP) with 8 mpk MDP in PBS. Two hours after MDP injection (3 hours after drug treatment), blood was collected via cardiac puncture for all mice into EDTA microtainer collection tubes. Plasma was prepared from blood and stored at −80° C.
MCP-1 levels in mouse plasma were measured using U-PLEX MSD kit according to manufacturer's instructions. A single analysis was performed for each sample. Concentrations were determined relative to a standard calibration curve, and total analyte levels in pg/mL.
The MCP-1 data in pg/mL were normalized in GraphPad Prism 9.2 using the normalize function and entering the 0% and 100% inhibition control groups for the study. 0% inhibition was defined as mean MCP-1 pg/mL in MDP vehicle group, and 100% inhibition was defined as mean MCP-1 pg/mL in the unstimulated vehicle group.

The mark [2] stands for this setting: single p.o. dose 10 mg/kg 1 h before i.p. MDP 8 mpk.
Setting [3] is: single p.o. dose 3 mg/kg 1 h before i.p. MDP 8 mpk.

A word on the IC50: it is the concentration that gives 50% inhibition. For the molecule `CC(C)(C)n1cc(NC(=O)Cc2ccc(Oc3ccnc4ccc(S(C)(=O)=O)cc34)cc2F)cn1` [Compound 38, N-(1-(tert-butyl)-1H-pyrazol-4-yl)-2-(2-fluoro-4-((6-(methylsulfonyl)quinolin-4-yl)oxy)phenyl)acetamide], in the experiment on human NOD2 signaling, the IC50 was 9 nM. Moreover, the “% MCP-1 inhibition” value in experiment [1] (setting [2]) is given as 99%.
In the case of `Cc1cc(CC(=O)Nc2cnn(C(C)(C)C)c2)ccc1Oc1ccnc2ccc(OC3CCNCC3)cc12` [Compound 83, N-(1-(tert-butyl)-1H-pyrazol-4-yl)-2-(3-methyl-4-((6-(piperidin-4-yloxy)quinolin-4-yl)oxy)phenyl) acetamide], the IC50 with human NOD2 signaling was determined as 5.9 nM. Moreover, the “% MCP-1 inhibition” value in experiment [1] (setting [3]) is “no effect”.
Turning to `Cc1cc(CC(=O)Nc2cnn(C(C)(C)C)c2)ccc1Oc1ccnc2ccc(S(C)(=O)=O)cc12` [Compound 86, N-(1-(tert-butyl)-1H-pyrazol-4-yl)-2-(3-methyl-4-((6-(methylsulfonyl)quinolin-4-yl)oxy)phenyl)acetamide], the IC50 in the experiment on human NOD2 signaling is 0.7 nM. In addition, in experiment [1] (setting [3]), the “% MCP-1 inhibition” value amounted to 101%.
Take `Cc1c(Oc2ccnc3ccc(S(C)(=O)=O)cc23)ccc(CC(=O)Nc2cnn(C(C)(C)C)c2)c1F` [Compound 91, N-(1-(tert-butyl)-1H-pyrazol-4-yl)-2-(2-fluoro-3-methyl-4-((6-(methylsulfonyl)quinolin-4-yl)oxy)phenyl)acetamide]: the IC50 in the experiment on human NOD2 signaling worked out at 0.5 nM. Also, in experiment [1] (setting [3]), the “% MCP-1 inhibition” value was determined as 99%.
In the case of `CCS(=O)(=O)c1ccc2nccc(Oc3ccc(CC(=O)Nc4cnn(C(C)(C)C)c4)cc3C)c2c1` [Compound 99, N-(1-(tert-butyl)-1H-pyrazol-4-yl)-2-(4-((6-(ethylsulfonyl)quinolin-4-yl)oxy)-3-methylphenyl)acetamide], the half-inhibitory concentration (IC50) in the experiment with human NOD2 signaling is 0.3 nM. In addition, the “% MCP-1 inhibition” value in experiment [1] (setting [3]) stood at 111%.
With `Cc1cc(CC(=O)Nc2cnn(C(C)(C)C)c2)c(F)cc1Oc1ccnc2ccc(S(C)(=O)=O)cc12` [Compound 113, N-(1-(tert-butyl)-1H-pyrazol-4-yl)-2-(2-fluoro-5-methyl-4-((6-(methylsulfonyl)quinolin-4-yl)oxy)phenyl)acetamide], the IC50 in the experiment with human NOD2 signaling was determined as 2.2 nM. In addition, the “% MCP-1 inhibition” value in experiment [1] (setting [2]) is on record as 82%.
Take `Cc1cc(CC(=O)Nc2cnn(C(C)(C)C)c2)c(F)cc1Oc1ccnc2ccc(C(N)=O)cc12` [Compound 359, 4-(4-(2-((1-(tert-butyl)-1H-pyrazol-4-yl)amino)-2-oxoethyl)-5-fluoro-2-methyl-phenoxy) quinoline-6-carboxamide]: in the experiment on human NOD2 signaling, the IC50 is 0.5 nM. Moreover, the “% MCP-1 inhibition” value in experiment [1] (setting [2]) is given as 88%.
On to `CNC(=O)c1ccc2nccc(Oc3cc(F)c(CC(=O)Nc4cnn(C(C)(C)C)c4)cc3C)c2c1` [Compound 360, 4-(4-(2-((1-(tert-butyl)-1H-pyrazol-4-yl)amino)-2-oxoethyl)-5-fluoro-2-methylphenoxy)-N-methylquinoline-6-carboxamide], for which the IC50 with human NOD2 signaling was found to be 0.2 nM. Also, in experiment [1] (setting [2]), the “% MCP-1 inhibition” value amounted to 93%.
For the molecule `Cc1cc(CC(=O)Nc2cnn(C(C)(C)C)c2)cc(C)c1Oc1ccnc2cc(F)c(C(N)=O)cc12` [Compound 581, 4-(4-(2-((1-(tert-butyl)-1H-pyrazol-4-yl)amino)-2-oxoethyl)-2,6-dimethylphenoxy)-7-fluoroquinoline-6-carboxamide], the IC50 in the experiment with human NOD2 signaling was found to be 1.2 nM. Moreover, in experiment [1] (setting [3]), the “% MCP-1 inhibition” value came to 75%.
